Source: US12275735B2, “Ergoline analogues” (BECKLEY PSYTECH LIMITED, priority 2021, dated 2025)

Key:
Assay type in all cases: cell-based
Human 5-HT2A Receptor [1] = target: T1, Human 5-HT2A Receptor (Homo sapiens, UniProt P28223); assay: Serotonin receptor calcium (Ca2+) assay (Multispan, FLIPR); settings: 5-HT 2a receptor; reference 10 μM serotonin; FIG. 3
T1 construct: host or cells: CHO-K1
Experimental: (§1) Compounds 018 and 019 were assayed using a serotonin (2a, 2b and 2c receptors) calcium (Ca^2+) assay, provided by Multispan. The reference used was 10 μM serotonin to calculate the percentage relative response in relative light units (RLU). The results can be seen in FIG. 3. Both compounds have some activity against the 2a and 2c receptors.
(§2) FLIPR calcium 6 assay explorer kit—VWR—cat. No. MLDVR8190
(§3) MULTISCREEN™ CHO-K1 Cell Line Stably Expressing Human 5-HT2A Receptor, Catalog DC1324-1

HTR1A = target: T2, HTR1A (Homo sapiens, UniProt P08908); assay: Serotonin receptor B-arrestin assay (DiscoverX PathHunter); settings: 5-HT 1a receptor; reference 10 μM serotonin; FIG. 4
T2 construct: host or cells: CHO-K1
T2 sequence (P08908 1-422): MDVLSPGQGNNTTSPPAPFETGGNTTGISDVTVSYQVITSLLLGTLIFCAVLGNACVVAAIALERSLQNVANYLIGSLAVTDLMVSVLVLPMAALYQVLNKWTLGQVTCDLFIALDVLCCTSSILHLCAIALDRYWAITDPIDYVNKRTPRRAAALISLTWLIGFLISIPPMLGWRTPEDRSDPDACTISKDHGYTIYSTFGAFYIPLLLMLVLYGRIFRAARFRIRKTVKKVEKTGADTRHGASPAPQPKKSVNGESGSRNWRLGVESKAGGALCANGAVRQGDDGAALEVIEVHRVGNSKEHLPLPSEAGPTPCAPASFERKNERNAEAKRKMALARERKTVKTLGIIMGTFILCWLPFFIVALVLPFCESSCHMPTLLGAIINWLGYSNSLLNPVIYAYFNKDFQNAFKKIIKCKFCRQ
Experimental: (§4) Compounds 018 and 019 were assayed using a serotonin (1a, 1b, 2a and 2c receptors) B-arrestin assay, provided by DiscoverX. The reference used was 10 μM serotonin to calculate the percentage relative response. The results can be seen in FIG. 4.
(§5) For the B-arrestin assays the cells came with the kits apart from the 2b receptor assay (Valiscreen serotonin 5HT-26 (human) cell line—ES-314-C, Perkin Elmer).

HTR2A = target: T3, HTR2A (Homo sapiens, UniProt P28223); assay: as above; settings: 5-HT 2a receptor; reference 10 μM serotonin; FIG. 4
T3 construct: host or cells: U2OS
T3 sequence (P28223 whole entry): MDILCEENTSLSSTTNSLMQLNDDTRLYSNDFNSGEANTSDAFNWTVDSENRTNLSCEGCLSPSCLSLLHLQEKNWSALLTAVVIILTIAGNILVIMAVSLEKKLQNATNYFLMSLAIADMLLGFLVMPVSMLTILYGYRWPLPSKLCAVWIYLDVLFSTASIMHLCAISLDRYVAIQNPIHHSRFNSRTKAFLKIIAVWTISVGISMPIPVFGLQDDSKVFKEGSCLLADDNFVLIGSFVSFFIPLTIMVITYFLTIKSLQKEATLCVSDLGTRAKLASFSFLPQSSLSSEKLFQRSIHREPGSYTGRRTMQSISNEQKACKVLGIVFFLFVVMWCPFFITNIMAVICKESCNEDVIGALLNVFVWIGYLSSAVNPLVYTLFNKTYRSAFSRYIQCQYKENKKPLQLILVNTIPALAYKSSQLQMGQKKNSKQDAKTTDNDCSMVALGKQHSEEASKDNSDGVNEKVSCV
Experimental: as §4, §5

HTR2C = target: T4, HTR2C (Homo sapiens, UniProt P28335); assay: as above; settings: 5-HT 2c receptor; reference 10 μM serotonin; FIG. 4
T4 construct: host or cells: U2OS
T4 sequence (P28335 33-458): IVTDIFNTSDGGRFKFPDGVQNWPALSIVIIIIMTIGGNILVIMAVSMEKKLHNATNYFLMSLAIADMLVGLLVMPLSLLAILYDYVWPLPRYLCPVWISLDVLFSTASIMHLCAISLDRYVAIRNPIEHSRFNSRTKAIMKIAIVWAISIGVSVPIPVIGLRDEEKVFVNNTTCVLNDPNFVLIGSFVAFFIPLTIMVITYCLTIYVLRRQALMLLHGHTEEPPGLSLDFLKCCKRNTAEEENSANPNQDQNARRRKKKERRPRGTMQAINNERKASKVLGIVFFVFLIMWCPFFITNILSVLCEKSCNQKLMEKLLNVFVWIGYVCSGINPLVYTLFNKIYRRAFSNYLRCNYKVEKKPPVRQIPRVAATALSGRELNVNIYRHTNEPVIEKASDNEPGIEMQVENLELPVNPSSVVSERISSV
Experimental: as §4, §5

HTR1B = target: T5, HTR1B (Homo sapiens, UniProt P28222); assay: as above; settings: 5-HT 1b receptor; reference 10 μM serotonin; FIG. 4
T5 construct: host or cells: U2OS
T5 sequence (P28222 whole entry): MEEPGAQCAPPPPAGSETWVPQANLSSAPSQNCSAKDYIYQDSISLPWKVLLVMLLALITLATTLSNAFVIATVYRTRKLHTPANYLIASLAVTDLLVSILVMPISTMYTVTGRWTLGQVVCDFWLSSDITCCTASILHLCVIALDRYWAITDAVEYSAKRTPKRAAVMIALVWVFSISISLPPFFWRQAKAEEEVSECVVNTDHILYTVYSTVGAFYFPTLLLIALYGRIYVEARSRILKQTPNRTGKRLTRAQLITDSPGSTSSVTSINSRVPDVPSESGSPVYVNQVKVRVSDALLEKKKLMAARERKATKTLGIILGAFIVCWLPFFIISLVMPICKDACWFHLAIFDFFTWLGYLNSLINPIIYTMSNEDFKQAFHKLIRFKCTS
Experimental: as §4, §5

Human 5-HT2A Receptor [2] = target: T1, Human 5-HT2A Receptor; assay: Serotonin receptor inositol phosphate 1 (IP1) assay (Multispan); settings: 5-HT 2a receptor; reference 1 μM serotonin; FIG. 2
Experimental: (§6) Compounds 018 and 019 were assayed using a serotonin (2a, 2b and 2c receptors) inositol phosphate 1 (IP1) assay, provided by Multispan. The reference used was 1 μM serotonin to calculate the percentage relative response. The results can be seen in FIG. 2. Both compounds appear to some activity against all three target receptors in this assay.
(§7) IP-One Gq kit—cisbio—cat. No. 62IPAPEB
as §3

Human 5-HT2B Receptor = target: T6, Human 5-HT2B Receptor (Homo sapiens, UniProt P41595); assay: as above; settings: 5-HT 2b receptor; reference 1 μM serotonin; FIG. 2
T6 construct: host or cells: CHO-K1
T6 sequence (P41595 whole entry): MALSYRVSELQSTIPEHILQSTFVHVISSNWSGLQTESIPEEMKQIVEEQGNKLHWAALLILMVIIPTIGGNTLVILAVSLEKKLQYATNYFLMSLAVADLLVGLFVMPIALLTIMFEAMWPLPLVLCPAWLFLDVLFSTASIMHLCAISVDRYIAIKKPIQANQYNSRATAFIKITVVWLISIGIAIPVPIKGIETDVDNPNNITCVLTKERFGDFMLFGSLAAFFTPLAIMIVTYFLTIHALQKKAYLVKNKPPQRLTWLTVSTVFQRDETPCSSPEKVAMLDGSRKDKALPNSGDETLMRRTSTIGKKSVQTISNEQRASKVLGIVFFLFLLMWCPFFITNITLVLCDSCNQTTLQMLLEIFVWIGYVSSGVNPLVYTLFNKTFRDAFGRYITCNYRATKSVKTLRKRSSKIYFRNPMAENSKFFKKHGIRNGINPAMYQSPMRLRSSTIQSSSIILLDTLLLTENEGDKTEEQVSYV
Experimental: as §6, §7
MULTISCREEN™ CHO-K1 Cell Line Stably Expressing Human 5-HT2B Receptor, Catalog DC1325-1

Human 5-HT2C Receptor [3] = target: T7, Human 5-HT2C Receptor (Homo sapiens, UniProt P28335); assay: as above; settings: 5-HT 2c receptor; reference 1 μM serotonin; FIG. 2
T7 construct: host or cells: CHO-K1
T7 sequence (P28335 33-458): T4 sequence (P28335 33-458)
Experimental: as §6, §7
(§8) MULTISCREEN™ CHO-K1 Cell Line Stably Expressing Human 5-HT2C Receptor, Catalog DC1326-1

Human 5-HT2C Receptor [4] = target: T7, Human 5-HT2C Receptor; assay: Serotonin receptor calcium (Ca2+) assay (Multispan, FLIPR); settings: 5-HT 2c receptor; reference 10 μM serotonin; FIG. 3
Experimental: as §1, §2, §8

Human 5-HT7 Receptor = target: T8, Human 5-HT7 Receptor (Homo sapiens, UniProt P34969); assay: Serotonin receptor cAMP assay (Multispan, HTRF); settings: 5-HT 7 receptor; reference 10 μM forskolin, serotonin control; FIG. 1
T8 construct: host or cells: HEK293T
T8 sequence (P34969 whole entry): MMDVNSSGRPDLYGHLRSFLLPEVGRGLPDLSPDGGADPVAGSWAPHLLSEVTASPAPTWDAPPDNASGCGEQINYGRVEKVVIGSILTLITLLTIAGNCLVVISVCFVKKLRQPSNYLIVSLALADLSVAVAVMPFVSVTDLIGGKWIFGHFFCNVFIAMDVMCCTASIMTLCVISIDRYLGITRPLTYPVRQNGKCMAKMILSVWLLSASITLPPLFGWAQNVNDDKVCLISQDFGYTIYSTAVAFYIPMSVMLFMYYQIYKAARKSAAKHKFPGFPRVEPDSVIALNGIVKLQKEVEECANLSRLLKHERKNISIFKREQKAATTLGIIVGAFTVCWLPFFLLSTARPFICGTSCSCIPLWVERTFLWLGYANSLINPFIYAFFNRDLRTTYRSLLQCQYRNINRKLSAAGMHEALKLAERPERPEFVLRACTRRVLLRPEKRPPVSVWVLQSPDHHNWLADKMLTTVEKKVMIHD
Experimental: (§9) Compounds 018 (above, left) and 019 (above, right) were assayed using a serotonin (1a, 1b, 2a, 2c and 7 receptors) cAMP assay, provided by Multispan. The reference used was 10 μM forskolin (a cAMP activator) to calculate the percentage relative response, serotonin was used as the control. The results can be seen in FIG. 1. Compound 019 was active against in all other receptor assays.
(§10) cAMP Gs dynamic kit—cisbio—cat. No. 62AM4PEC
MULTISCREEN™ HEK293T Cell Line Stably Expressing Human 5-HT7 Receptor, Catalog DC1334

Human 5-HT1B Receptor = target: T9, Human 5-HT1B Receptor (Homo sapiens, UniProt P28222); assay: Serotonin receptor cAMP assay (Multispan, HTRF); settings: 5-HT 1b receptor; reference 10 μM forskolin, serotonin control; FIG. 1
T9 construct: host or cells: HEK293T
T9 sequence (P28222 whole entry): as the sequence (P28222 whole entry) above
Experimental: as §9, §10
MULTISCREEN™ HEK293T Cell Line Stably Expressing Human 5-HT1B Receptor, Catalog DC1320a
MULTISCREEN™ HEK293T Cell Line Stably Expressing Human 5HT1B Receptor, Catalog DC1320a

Human 5-HT2C Receptor [5] = target: T7, Human 5-HT2C Receptor; assay: Serotonin receptor cAMP assay (Multispan, HTRF); settings: 5-HT 2c receptor; reference 10 μM forskolin, serotonin control; FIG. 1
Experimental: as §9, §10, §8

Human 5-HT2A Receptor [6] = target: T1, Human 5-HT2A Receptor; assay: Serotonin receptor cAMP assay (Multispan, HTRF); settings: 5-HT 2a receptor; reference 10 μM forskolin, serotonin control; FIG. 1
Experimental: as §9, §10, §3

Human 5-HT1A Receptor = target: T10, Human 5-HT1A Receptor (Homo sapiens, UniProt P08908); assay: Serotonin receptor cAMP assay (Multispan, HTRF); settings: 5-HT 1a receptor; reference 10 μM forskolin, serotonin control; FIG. 1
T10 construct: host or cells: HEK293T
T10 sequence (P08908 1-422): T2 sequence (P08908 1-422)
Experimental: as §9, §10
MULTISCREEN™ HEK293T Cell Line Stably Expressing Human 5-HT1A Receptor, Catalog DC1319a

T1 sequence (P28223 whole entry): as the sequence (P28223 whole entry) above

Row | Compound | Calcium (Ca2+) assay activity (Human 5-HT2A Receptor [1]) | B-arrestin assay activity (HTR1A) | B-arrestin assay activity (HTR2A) | B-arrestin assay activity (HTR2C) | B-arrestin assay activity (HTR1B) | IP1 assay activity (Human 5-HT2A Receptor [2]) | IP1 assay activity (Human 5-HT2B Receptor) | IP1 assay activity (Human 5-HT2C Receptor [3]) | Calcium (Ca2+) assay activity (Human 5-HT2C Receptor [4]) | cAMP assay activity (Human 5-HT7 Receptor) | cAMP assay activity (Human 5-HT1B Receptor) | cAMP assay activity (Human 5-HT2C Receptor [5]) | cAMP assay activity (Human 5-HT2A Receptor [6]) | cAMP assay activity (Human 5-HT1A Receptor)
1 | CCCCCN(C(=O)[C@@H]1C=C2c3cccc4[nH]cc(c34)C[C@H]2N(C)C1)C(C)C [Compound 018, (4R,6R,7R)-6-methyl-4-[pentyl(propan-2-yl)carbamoyl]-6,11-diazatetra-cyclo[7.6.1.0^2,^7.0^12,^16] hexadeca-1(16),2,9,12,14-pentaen-6-ium] | some activity | some activity | some activity | some activity | some activity | some activity | some activity | some activity | some activity |  |  |  |  | 
2 | CC(C)NC(=O)[C@@H]1C=C2c3cccc4[nH]cc(c34)C[C@H]2N(C)C1 [Compound 019, (4R,6R,7R)-6-methyl-4-[(propan-2-yl)carbamoyl]-6,11-diazatetra-cyclo[7.6.1.0^2,^7^7.0^12,^16] hexadeca-1(16),2,9,12,14-pentaen-6-ium] | some activity | some activity | some activity | some activity | some activity | some activity | some activity | some activity | some activity | active | active | active | stimulates the 5HT2aR leading to downstream activation of cAMP | active
